Data: patent US7820060B2, “Synergistic biocide and process for controlling growth of microorganisms” (Hercules Incorporated, priority 2005, dated 2010)

Key:
[1] = test system: multi-species bacterial consortium (artificial consortium); test: Dose protocol: growth inhibition (O.D. 650 nm, 4 hours) of artificial bacterial consortium in synthetic white water, I50 and synergy index; format: cell-based; settings: for Synergy Index: <1.00 synergistic; for mg/l NHCl2 (alone or in the mixture) to yield 50% inhibition (I50) / mg/l NH2Cl (alone or in the mixture) to yield 50% inhibition (I50): concurrent feed, mg/l as Cl2
Method: The efficacies of the active materials and blends were determined using a dose protocol. The actives were evaluated in synthetic white water (see Smith et al., U.S. Pat. […] The materials were tested against multi-species bacterial consortium (also referred to as an artificial consortium) containing approximately equal numbers of six bacterial strains. Although the test strains are representative of organisms present in paper mill systems, the effect is not limited to these bacteria. Two of the strains were Klebsiella pneumonia (ATCC 13883) and Pseudomonas aeruginosa (ATCC 15442). The other four strains were isolated from paper mill systems and have been identified as Curtobacterium flaccumfaciens, Burkholderia cepacia, Bacillus maroccanus, and Pseudomonas […]. Each strain was grown on Tryptic Soy Agar overnight at 37° C. Sterile cotton-tipped swabs were used to aseptically transfer cells to a sterile solution of saline. Each cell suspension was prepared to a desired concentration as measured by turbidity before equal volumes of each strain were then combined to prepare the consortium. The bacterial consortium was distributed into the wells of a microtiter plate before additions of monohaloamine and/or dihaloamine were made. The microtiter plates were incubated at 37° C. Optical density (O.D.) readings at 650 nm were taken initially (t0) and after time 4 hours (t4) of incubation. […] The inhibition values can be plotted versus dosage for each active and the particular blend. […] Synergy Index (SI)=(QA÷Qa)+(QB÷Qb) where: • QA=quantity of compound A in mixture, producing the end point • Qa=quantity of compound A, acting alone, producing the end point • QB=quantity of compound B in mixture, producing the end point • Qb=quantity of compound B, acting alone, producing the end point […] A measured amount of monochloramine and a measured amount of dichloramine were added to a suspension of bacteria and the cell suspension incubated for a selected time period. The effectiveness of the combination of biocides was determined by measuring growth or lack thereof after an additional appropriate incubation time.

[2] = test system: artificial bacterial consortia; test: Standard challenge assay: numbers of bacteria surviving after contact time in mineral salt solution; format: cell-based
Method: The antibacterial efficacy of monochloramine and dichloramine alone and in combination were compared in a standard challenge assay. To perform the assay, artificial bacterial consortia were prepared using the same species as those in the microtiter assays. A mineral salt solution was prepared by combining K2HPO4 (1.2 mg/l), KH2PO4 (0.624 mg/l), (NH4)2SO4 (0.05 g/l), and NaCl (0.1 mg/l). This solution was sterilized by autoclaving (121° C., 15 min) and, after cooling, it was amended with the following: 10 ml/l of filter sterilized solution of 0.5% (w/v) of CaCl2.6H2O; 10 ml/l of filter sterilized solution of 2% MgSO4.7H2O; filter-sterilized glucose (0.01 g/l, final concentration); 1 ml of a filter-sterilized solution containing Na2EDTA (ethylene diamine tetra acetate) (1.58 g/100 ml), ZnSO4.7H2O (0.7 g/100 ml); MnSO4—H2O (0.18 g/100 ml); FeSO4.7H2O (0.16 g/100 ml); COCl2.6H2O (0.052 g/100 ml); NaMoO4.2H2O (0.042 g/100 ml); and CuSO4.5H2O (0.047 g/100 ml). Equal volumes of cell suspensions of each strain were then combined to prepare the consortium. The bacterial consortium was distributed into sterile glass containers and immediately used in challenge studies. To determine the effect of pH of the mineral salt solution on efficacy of monochloramine, dichloramine, and combinations thereof, the pH of the cell suspension was adjusted to desired levels using dilute solutions of sodium hydroxide or phosphoric acid, as appropriate. The pH values tested in the challenge studies were 5.0, 6.0, 7.0, and 8.0. The pH values represent the pH of whitewater typical of the majority of paper mills.
After the monohaloamine solution was prepared, the quantity needed to achieve a desired final concentration was transferred to the previously prepared bacterial consortium. Samples of the bacterial consortium were collected immediately before addition of the monochloramine and after contact times, usually 1, 10, and 20 minutes. Controls were untreated cell suspensions.
To perform a challenge study, monochloramine was prepared to a desired concentration by mixing appropriate quantities of 30% ammonium hydroxide and 6.2% percent sodium hypochlorite in a volume of deionized water in such a manner as to achieve equimolar ratios of Cl^− and NH2^+. After preparation of the monochloramine solution, the purity of the solution was verified by determining its absorbance spectrum. To prepare a dichloramine solution, the pH of a monochloramine solution was adjusted to down to 5.0. This ensured conversion of monochloramine to dichloramine. […] The concentrations of monochloramine and dichloramine in the solutions were confirmed by measuring total chlorine concentration by Hach DPD chlorine test.
In this example, a measured amount of monochloramine and a measured amount of dichloramine were added to a consortium of bacteria prepared to a density of approximately 1×10^6 cells per milliliter and the cell suspension incubated for a selected time. The consortium of bacteria is described above. The effectiveness of the combination of biocides was determined by measuring the number of bacteria that survived after the contact time. The efficacy of monochloramine, dichloramine, and combinations of the two actives were compared at different pH values. Bacterial consortia were prepared in mineral salts solutions with pH adjusted to selected values and challenged with monochloramine and dichloramine and combinations thereof. Samples for enumerating the number of surviving bacteria were collected at selected time intervals.
Although synergy was detected when monochloramine and dichloramine were combined in a 1:1 ratio, the results of Example 1 illustrated that optimum ratios were larger than 1:1 (monochloramine to dichloramine). In this example, bacterial consortia were prepared with the pH of the mineral salts solution adjusted to selected levels immediately before the cells were added. […]

[3] = pH 5.5, based on 50% inhibition
[4] = pH 8.0, based on 50% inhibition

| SMILES | Synergy Index [1, 3] | mg/l NHCl2 (alone or in the mixture) to yield 50% inhibition (I50) ([1]; pH 5.5, synthetic white water) [mg/L] | Synergy Index [1, 4] | mg/l NHCl2 (alone or in the mixture) to yield 50% inhibition (I50) ([1]; pH 8.0, synthetic white water) [mg/L] | Numbers of bacteria surviving after a 20 minute contact time (average of three values) ([2]; pH 5.0, 0.5 mg/l single active) [log10] | Numbers of bacteria surviving after a 20 minute contact time (average of three values) ([2]; pH 5.0, 1.0 mg/l single active) [log10] | Numbers of bacteria surviving after a 20 minute contact time (average of three values) ([2]; pH 6.0, 0.5 mg/l single active) [log10] | Numbers of bacteria surviving after a 20 minute contact time (average of three values) ([2]; pH 6.0, 1.0 mg/l single active) [log10] | Numbers of bacteria surviving after a 20 minute contact time (average of three values) ([2]; pH 7.0, 0.5 mg/l single active) [log10] | Numbers of bacteria surviving after a 20 minute contact time (average of three values) ([2]; pH 7.0, 1.0 mg/l single active) [log10] | Numbers of bacteria surviving after a 20 minute contact time (average of three values) ([2]; pH 8.0, 0.5 mg/l single active) [log10] | Numbers of bacteria surviving after a 20 minute contact time (average of three values) ([2]; pH 8.0, 1.0 mg/l single active) [log10] | mg/l NH2Cl (alone or in the mixture) to yield 50% inhibition (I50) ([1]; pH 5.5, synthetic white water) [mg/L] | mg/l NH2Cl (alone or in the mixture) to yield 50% inhibition (I50) ([1]; pH 8.0, synthetic white water) [mg/L] |
| --- | --- | --- | --- | --- | --- | --- | --- | --- | --- | --- | --- | --- | --- | --- |
| ClNCl [NHCl2, dichloramine] | 1.00 | 17.23 | 1.00 | 0.59 | 5.58 | 4.47 | 5.17 | 3.62 | 5.52 | 5.40 | 5.62 | 5.26 | – | – |
| NCl [NH2Cl, monochloramine] | 1.00 | – | 1.00 | – | 4.97 | 3.94 | 5.14 | 5.14 | 5.47 | 5.17 | 5.74 | 5.71 | 18.21 | 7.96 |
